Laboratory results as given in ChEMBL document CHEMBL3611978, “Synthesis and biological evaluation of novel 7-substituted 3-(4-phenoxyphenyl)thieno[3,2-c]pyridin-4-amines as potent Bruton's tyrosine kinase (BTK) inhibitors” (Bioorg Med Chem, 2015).
pIC50: −log10 of the molar value.

These compounds were tested against Hepatocyte growth factor receptor (Homo sapiens, UniProt P08581) (assay: Inhibition of c-MET (unknown origin) after 1 hr by ELISA based assay).
Hepatocyte growth factor receptor, sequence (P08581 whole entry): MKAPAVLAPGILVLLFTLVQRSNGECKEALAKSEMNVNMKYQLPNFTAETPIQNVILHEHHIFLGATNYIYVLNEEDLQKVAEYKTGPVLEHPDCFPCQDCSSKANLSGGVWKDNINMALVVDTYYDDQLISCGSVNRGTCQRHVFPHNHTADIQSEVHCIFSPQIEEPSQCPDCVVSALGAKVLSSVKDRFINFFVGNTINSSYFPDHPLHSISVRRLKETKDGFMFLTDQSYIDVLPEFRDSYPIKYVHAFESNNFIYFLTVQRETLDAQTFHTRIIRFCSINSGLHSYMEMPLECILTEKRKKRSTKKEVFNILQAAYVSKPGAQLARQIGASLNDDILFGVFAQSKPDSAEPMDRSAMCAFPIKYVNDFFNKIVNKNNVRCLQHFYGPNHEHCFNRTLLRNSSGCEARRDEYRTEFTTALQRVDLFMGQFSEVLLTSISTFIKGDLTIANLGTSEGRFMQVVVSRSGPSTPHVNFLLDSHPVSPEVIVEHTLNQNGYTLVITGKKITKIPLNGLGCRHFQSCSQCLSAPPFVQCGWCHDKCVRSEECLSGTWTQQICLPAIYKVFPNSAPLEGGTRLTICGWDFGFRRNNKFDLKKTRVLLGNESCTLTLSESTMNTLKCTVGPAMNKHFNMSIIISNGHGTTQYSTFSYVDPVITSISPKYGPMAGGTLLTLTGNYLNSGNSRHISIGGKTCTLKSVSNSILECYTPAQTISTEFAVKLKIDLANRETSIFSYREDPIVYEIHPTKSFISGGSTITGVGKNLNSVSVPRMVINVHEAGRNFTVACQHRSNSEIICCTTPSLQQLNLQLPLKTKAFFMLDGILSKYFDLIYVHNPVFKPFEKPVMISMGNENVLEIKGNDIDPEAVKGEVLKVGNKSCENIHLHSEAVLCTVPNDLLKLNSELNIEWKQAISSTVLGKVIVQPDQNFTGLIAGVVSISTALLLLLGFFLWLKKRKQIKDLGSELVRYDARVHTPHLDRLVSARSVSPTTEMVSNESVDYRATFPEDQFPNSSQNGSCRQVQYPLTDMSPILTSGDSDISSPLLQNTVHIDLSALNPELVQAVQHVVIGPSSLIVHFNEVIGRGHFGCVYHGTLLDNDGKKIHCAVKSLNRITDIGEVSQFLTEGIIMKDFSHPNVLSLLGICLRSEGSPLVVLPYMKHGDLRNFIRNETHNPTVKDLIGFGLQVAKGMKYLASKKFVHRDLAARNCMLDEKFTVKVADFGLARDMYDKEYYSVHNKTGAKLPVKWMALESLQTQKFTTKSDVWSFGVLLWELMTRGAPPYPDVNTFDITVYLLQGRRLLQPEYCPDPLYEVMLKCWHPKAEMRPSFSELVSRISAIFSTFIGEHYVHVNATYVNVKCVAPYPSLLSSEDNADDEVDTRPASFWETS
With `Nc1ncc(-c2cnn(CC(=O)N3CCOCC3)c2)c2scc(-c3ccc(Oc4ccccc4)cc3)c12` the pIC50 was 5.61.

Each compound was assayed against Vascular endothelial growth factor receptor 2 (Homo sapiens, UniProt P35968) (assay: Inhibition of KDR (unknown origin) after 1 hr by ELISA based assay).
Vascular endothelial growth factor receptor 2, sequence (P35968 whole entry): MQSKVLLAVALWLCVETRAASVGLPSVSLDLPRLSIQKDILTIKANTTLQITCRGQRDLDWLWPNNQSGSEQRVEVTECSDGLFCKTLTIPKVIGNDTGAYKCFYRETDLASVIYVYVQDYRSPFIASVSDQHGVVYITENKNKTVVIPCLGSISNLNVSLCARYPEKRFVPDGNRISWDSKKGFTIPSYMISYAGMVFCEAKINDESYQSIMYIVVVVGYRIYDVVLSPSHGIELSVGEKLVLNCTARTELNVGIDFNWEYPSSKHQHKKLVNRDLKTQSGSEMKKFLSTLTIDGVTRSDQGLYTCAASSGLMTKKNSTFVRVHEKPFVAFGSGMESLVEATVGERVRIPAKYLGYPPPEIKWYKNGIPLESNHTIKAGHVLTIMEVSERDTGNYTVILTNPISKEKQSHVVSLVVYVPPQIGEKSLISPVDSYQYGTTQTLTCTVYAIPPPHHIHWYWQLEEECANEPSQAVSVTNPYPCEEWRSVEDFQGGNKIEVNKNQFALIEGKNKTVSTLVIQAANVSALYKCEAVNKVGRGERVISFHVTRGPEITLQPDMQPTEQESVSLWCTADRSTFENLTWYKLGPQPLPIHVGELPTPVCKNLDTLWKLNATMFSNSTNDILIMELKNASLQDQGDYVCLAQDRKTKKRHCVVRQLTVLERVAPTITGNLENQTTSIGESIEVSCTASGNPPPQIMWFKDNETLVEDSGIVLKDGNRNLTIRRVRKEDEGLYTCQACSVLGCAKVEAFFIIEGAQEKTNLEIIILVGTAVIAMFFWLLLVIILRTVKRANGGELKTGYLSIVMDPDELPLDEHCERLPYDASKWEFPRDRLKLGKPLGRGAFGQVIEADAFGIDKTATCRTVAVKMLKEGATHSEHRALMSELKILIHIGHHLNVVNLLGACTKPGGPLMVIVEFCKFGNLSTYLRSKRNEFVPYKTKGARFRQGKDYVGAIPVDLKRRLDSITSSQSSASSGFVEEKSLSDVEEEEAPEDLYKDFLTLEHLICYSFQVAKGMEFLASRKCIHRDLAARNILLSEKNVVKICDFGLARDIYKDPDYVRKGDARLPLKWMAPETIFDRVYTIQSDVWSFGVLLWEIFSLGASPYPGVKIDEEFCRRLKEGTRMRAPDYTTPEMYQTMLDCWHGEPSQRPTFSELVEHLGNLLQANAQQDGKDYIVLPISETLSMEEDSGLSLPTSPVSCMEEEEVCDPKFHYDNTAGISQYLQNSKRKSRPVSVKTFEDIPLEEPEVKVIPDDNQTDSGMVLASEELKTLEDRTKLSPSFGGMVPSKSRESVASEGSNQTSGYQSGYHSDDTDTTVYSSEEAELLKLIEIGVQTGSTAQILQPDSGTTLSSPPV
`Nc1ncc(-c2cnn(CC(=O)N3CCOCC3)c2)c2scc(-c3ccc(Oc4ccccc4)cc3)c12` gave a pIC50 of 6.72.

These compounds were tested against T1, Tyrosine-protein kinase JAK3 (Homo sapiens, UniProt P52333) (assay: Inhibition of JAK3 (unknown origin) after 1 hr by ELISA based assay).
T1 sequence (P52333 whole entry): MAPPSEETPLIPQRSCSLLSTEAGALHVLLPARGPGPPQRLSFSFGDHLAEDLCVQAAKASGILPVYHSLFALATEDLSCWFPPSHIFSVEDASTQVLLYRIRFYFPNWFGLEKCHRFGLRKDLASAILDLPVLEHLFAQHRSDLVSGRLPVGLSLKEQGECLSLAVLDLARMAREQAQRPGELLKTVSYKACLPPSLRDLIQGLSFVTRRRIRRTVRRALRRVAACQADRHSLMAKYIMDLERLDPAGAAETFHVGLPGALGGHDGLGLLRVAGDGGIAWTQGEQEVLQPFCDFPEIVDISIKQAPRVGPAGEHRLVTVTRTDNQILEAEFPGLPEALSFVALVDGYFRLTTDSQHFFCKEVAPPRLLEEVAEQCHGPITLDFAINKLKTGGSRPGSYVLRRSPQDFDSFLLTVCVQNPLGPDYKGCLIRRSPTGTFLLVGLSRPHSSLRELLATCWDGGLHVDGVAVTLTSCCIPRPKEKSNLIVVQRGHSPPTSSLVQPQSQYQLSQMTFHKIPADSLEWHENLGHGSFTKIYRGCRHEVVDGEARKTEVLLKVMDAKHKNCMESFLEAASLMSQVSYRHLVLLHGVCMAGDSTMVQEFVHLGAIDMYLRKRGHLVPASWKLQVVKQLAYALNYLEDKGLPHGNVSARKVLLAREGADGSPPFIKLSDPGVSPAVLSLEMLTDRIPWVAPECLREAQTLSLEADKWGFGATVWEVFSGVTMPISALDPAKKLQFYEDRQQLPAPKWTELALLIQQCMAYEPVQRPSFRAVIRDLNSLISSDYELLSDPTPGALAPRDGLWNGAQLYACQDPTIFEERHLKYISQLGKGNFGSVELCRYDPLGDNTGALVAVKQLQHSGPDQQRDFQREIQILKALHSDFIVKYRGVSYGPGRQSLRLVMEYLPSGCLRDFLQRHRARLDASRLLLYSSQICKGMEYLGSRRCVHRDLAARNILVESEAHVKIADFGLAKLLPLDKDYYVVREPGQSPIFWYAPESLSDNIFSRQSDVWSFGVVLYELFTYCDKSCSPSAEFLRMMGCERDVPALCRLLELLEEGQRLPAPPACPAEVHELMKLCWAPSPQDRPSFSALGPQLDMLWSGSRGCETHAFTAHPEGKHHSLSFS
Compound `Nc1ncc(-c2cnn(CC(=O)N3CCOCC3)c2)c2scc(-c3ccc(Oc4ccccc4)cc3)c12` has a pIC50 of 5.51.

These compounds were tested against Tyrosine-protein kinase JAK2 (Homo sapiens, UniProt O60674) (assay: Inhibition of JAK2 (unknown origin) after 1 hr by ELISA based assay).
Tyrosine-protein kinase JAK2, sequence (O60674 whole entry): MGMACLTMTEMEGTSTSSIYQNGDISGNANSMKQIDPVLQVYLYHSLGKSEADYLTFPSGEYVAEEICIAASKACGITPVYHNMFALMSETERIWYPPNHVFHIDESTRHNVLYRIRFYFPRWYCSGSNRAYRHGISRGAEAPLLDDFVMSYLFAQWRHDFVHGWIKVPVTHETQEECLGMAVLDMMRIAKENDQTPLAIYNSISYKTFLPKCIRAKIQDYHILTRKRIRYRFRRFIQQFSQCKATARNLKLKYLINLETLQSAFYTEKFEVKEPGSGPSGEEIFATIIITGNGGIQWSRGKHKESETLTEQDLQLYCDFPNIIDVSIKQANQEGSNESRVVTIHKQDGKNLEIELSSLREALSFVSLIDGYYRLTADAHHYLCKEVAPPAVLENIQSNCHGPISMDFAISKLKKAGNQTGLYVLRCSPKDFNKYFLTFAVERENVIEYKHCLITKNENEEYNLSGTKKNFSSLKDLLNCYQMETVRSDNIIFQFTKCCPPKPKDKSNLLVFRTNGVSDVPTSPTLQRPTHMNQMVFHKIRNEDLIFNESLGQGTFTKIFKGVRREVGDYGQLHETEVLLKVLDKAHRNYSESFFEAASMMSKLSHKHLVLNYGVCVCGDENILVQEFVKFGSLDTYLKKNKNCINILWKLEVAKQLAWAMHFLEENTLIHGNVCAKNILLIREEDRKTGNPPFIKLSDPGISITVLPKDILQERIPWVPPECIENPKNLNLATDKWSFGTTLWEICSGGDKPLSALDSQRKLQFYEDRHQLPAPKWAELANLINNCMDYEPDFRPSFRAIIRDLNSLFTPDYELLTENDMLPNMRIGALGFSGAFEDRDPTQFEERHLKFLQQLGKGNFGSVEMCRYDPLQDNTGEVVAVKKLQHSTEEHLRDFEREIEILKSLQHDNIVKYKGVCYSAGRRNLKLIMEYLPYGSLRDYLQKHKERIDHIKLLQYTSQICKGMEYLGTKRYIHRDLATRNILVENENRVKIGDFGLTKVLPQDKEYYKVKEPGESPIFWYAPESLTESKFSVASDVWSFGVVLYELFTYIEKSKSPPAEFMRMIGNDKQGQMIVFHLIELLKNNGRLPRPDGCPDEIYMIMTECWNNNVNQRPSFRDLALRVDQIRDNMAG
Compound `Nc1ncc(-c2cnn(CC(=O)N3CCOCC3)c2)c2scc(-c3ccc(Oc4ccccc4)cc3)c12` has a pIC50 of 5.16.

What follows are compounds tested against Tyrosine-protein kinase BTK (Homo sapiens, UniProt Q06187) (assay: Inhibition of BTK (unknown origin) after 1 hr by TR-FRET assay).
Tyrosine-protein kinase BTK, sequence (Q06187 whole entry): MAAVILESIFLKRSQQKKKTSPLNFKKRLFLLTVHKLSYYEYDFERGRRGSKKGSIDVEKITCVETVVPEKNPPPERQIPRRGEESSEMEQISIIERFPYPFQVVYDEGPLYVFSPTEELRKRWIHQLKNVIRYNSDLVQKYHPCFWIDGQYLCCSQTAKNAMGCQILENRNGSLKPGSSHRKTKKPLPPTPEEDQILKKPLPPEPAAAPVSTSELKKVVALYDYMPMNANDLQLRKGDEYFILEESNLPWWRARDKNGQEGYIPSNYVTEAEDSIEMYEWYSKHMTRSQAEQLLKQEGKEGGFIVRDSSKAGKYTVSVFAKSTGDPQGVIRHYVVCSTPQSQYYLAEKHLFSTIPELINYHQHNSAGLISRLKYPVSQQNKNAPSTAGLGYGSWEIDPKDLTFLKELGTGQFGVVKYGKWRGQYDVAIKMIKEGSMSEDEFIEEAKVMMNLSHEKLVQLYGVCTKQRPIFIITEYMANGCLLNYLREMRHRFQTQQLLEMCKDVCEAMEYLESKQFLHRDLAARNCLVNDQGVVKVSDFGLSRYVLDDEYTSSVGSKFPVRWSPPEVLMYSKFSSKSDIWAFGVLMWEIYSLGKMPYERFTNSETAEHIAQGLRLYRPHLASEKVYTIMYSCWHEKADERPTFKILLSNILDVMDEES
In the case of `CC(C)(C)OC(=O)N1CC=C(c2cnc(N)c3c(-c4ccc(Oc5ccccc5)cc4)csc23)CC1`, the pIC50 was 5.78. `Nc1ncc(-c2cnn(CC(=O)N3CCCCC3)c2)c2scc(-c3ccc(Oc4ccccc4)cc3)c12` showed a pIC50 of 7.91. In the case of `Nc1ncc(-c2cnn(CC(=O)N3CCOCC3)c2)c2scc(-c3ccc(Oc4ccccc4)cc3)c12`, the pIC50 was 7.93. `Nc1ncc(-c2cnn(C3CCCNC3=O)c2)c2scc(-c3ccc(Oc4ccccc4)cc3)c12` (centres undefined) gave a pIC50 of 8.02. Compound `CC(=O)Cn1cc(-c2cnc(N)c3c(-c4ccc(Oc5ccccc5)cc4)csc23)cn1` has a pIC50 of 8.11. Compound `C#CCn1cc(-c2cnc(N)c3c(-c4ccc(Oc5ccccc5)cc4)csc23)cn1` has a pIC50 of 8.13. `CNC(=O)CCn1cc(-c2cnc(N)c3c(-c4ccc(Oc5ccccc5)cc4)csc23)cn1` was tested, and the pIC50 was 7.59. `CS(=O)(=O)OC1CCCN(C(=O)CCn2cc(-c3cnc(N)c4c(-c5ccc(Oc6ccccc6)cc5)csc34)cn2)C1` (centres undefined) was tested, and the pIC50 was 7.26. Work on `Nc1ncc(-c2cnn(CCC(=O)O)c2)c2scc(-c3ccc(Oc4ccccc4)cc3)c12` yielded a pIC50 of 7.68. Work on `C=CC(=O)NCCn1cc(-c2cnc(N)c3c(-c4ccc(Oc5ccccc5)cc4)csc23)cn1` yielded a pIC50 of 8.00. For `C=CC(=O)n1cc(-c2cnc(N)c3c(-c4ccc(Oc5ccccc5)cc4)csc23)cn1`, the pIC50 was 5.77. Work on `CC(C)(C)OC(=O)N1C=C(c2cnc(N)c3c(-c4ccc(Oc5ccccc5)cc4)csc23)CCC1` yielded a pIC50 of 5.54. `Nc1ncc(C2=CNCCC2)c2scc(-c3ccc(Oc4ccccc4)cc3)c12` showed a pIC50 of 5.44. In the case of `CNC(=O)CN1C=C(c2cnc(N)c3c(-c4ccc(Oc5ccccc5)cc4)csc23)CCC1`, the pIC50 was 6.34. For `C=CC(=O)N1C=C(c2cnc(N)c3c(-c4ccc(Oc5ccccc5)cc4)csc23)CCC1`, the pIC50 was 6.47. With `Nc1ncc(C2CCCNC2)c2scc(-c3ccc(Oc4ccccc4)cc3)c12` (centres undefined) the pIC50 was < 5.00. `C=CC(=O)N1CCCC(c2cnc(N)c3c(-c4ccc(Oc5ccccc5)cc4)csc23)C1` (centres undefined) showed a pIC50 of 5.64. With `Nc1ncc(C2=CCNCC2)c2scc(-c3ccc(Oc4ccccc4)cc3)c12` the pIC50 was 6.07. Work on `C=CC(=O)N1CC=C(c2cnc(N)c3c(-c4ccc(Oc5ccccc5)cc4)csc23)CC1` yielded a pIC50 of 6.74. `Nc1ncc(C2CCNCC2)c2scc(-c3ccc(Oc4ccccc4)cc3)c12` was tested, and the pIC50 was < 5.00.
